{"source": "patent US10493069B2", "about": "“Methods of treating behavioral syndromes using pipradrol” (Ovid Therapeutics Inc., priority 2016, dated 2019)", "origin": "cited, not measured here", "tested_on": "individuals with depression", "details": "study on 111 individuals with depression; Rickels et al., J Clin Pharmacol 14, 127-133 (1974)", "data": [{"smiles": "OC(c1ccccc1)(c1ccccc1)C1CCCCN1", "note": "(stereo not shown) [pipradrol]", "values": [{"measurement": "efficacy compared with placebo in depression", "value": "not superior to placebo"}]}]}
